The test system of series [1] is Spodoptera littoralis (Egyptian Cotton Leaf Worm). As to the kind of experiment: Example B6: Activity against Spodoptera littoralis (Egyptian cotton leaf worm). The class given is in vivo. As to conditions: foliar, 72 h, application rate 200 ppm, L1 larvae on sprayed cotton leaf discs, 3 days after infestation, read-out: control (mortality, anti-feeding effect or growth inhibition). The essentials: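 Cotton leaf discs on agar were sprayed with aqueous test solutions prepared from 10'000 ppm DMSO stocks. After drying, each disc was infested with five L1 larvae. Mortality, anti-feeding and growth inhibition were scored against untreated samples 3 days after infestation.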

Series [2] concerns Euschistus heros (Neotropical Brown Stink Bug). As to the kind of experiment: Example B2: Activity against Euschistus heros (neotropical brown stink bug), sprayed soybean leaves. It is filed as in vivo. The note with it: 120 h, application rate 200 ppm, N2 nymphs on sprayed soybean leaves, 5 days after infestation, read-out: effect in at least one of the two categories (mortality or growth inhibition). On the procedure:
Example B2: Activity Against Euschistus heros (Neotropical Brown Stink Bug)
Soybean leaves on agar in 24-well microtiter plates were sprayed with aqueous test solutions prepared from 10′000 ppm DMSO stock solutions. After drying the leaves were infested with N2 nymphs. The samples were assessed for mortality and growth inhibition in comparison to untreated samples 5 days after infestation.

Series [3] concerns Diabrotica balteata (Corn Root Worm). Kind of series: Example B1: Activity against Diabrotica balteata (corn root worm), sprayed maize sprouts. The class given is in vivo. As to conditions: 96 h, application rate 200 ppm, L2 larvae on sprayed maize sprouts, 4 days after infestation, read-out: effect in at least one of the two categories (mortality or growth inhibition). On the procedure: Example B1: Activity Against Diabrotica balteata (Corn Root Worm)
Maize sprouts placed onto an agar layer in 24-well microtiter plates were treated with aqueous test solutions prepared from 10′000 ppm DMSO stock solutions by spraying. After drying, the plates were infested with L2 larvae (6 to 10 per well). The samples were assessed for mortality and growth inhibition in comparison to untreated samples 4 days after infestation.

The subject of series [4] is Plutella xylostella (Diamond Back Moth). Kind of series: Example B3: Activity against Plutella xylostella (diamond back moth), artificial diet. The class given is in vivo. The note with it: 192 h, application rate 200 ppm, eggs on artificial diet, 8 days after infestation, read-out: effect in at least one of the two categories (mortality or growth inhibition).
The test system of series [5] is Bemisia tabaci (Cotton White Fly). As to the kind of experiment: Example B7: Activity against Bemisia tabaci (cotton white fly). The class given is in vivo. The note with it: foliar, 144 h, application rate 200 ppm, adult white flies on sprayed cotton leaf discs, 6 days after incubation. On the procedure: Example B7: Activity Against Bemisia tabaci (Cotton White Fly)
Cotton leaf discs were placed on agar in 24-well microtiter plates and sprayed with aqueous test solutions prepared from 10′000 ppm DMSO stock solutions. After drying the leaf discs were infested with adult white flies. The samples were checked for mortality 6 days after incubation.

Series [6] has as its system Myzus persicae (Green Peach Aphid). Kind of series: whole plant or invertebrate. The class given is in vivo. The note with it: foliar, 144 h, application rate 200 ppm, sprayed sunflower leaf discs, mixed ages, 6 days after infestation. As to the method: Example B4: Activity Against Myzus persicae (Green Peach Aphid) Feeding/Contact Activity
Sunflower leaf discs were placed onto agar in a 24-well microtiter plate and sprayed with aqueous test solutions prepared from 10′000 ppm DMSO stock solutions. After drying, the leaf discs were infested with an aphid population of mixed ages. The samples were assessed for mortality 6 days after infestation.

The subject of series [7] is Frankliniella occidentalis (Western Flower Thrips). Kind of series: Example B8: Activity against Frankliniella occidentalis (western flower thrips). The class given is in vivo. The note with it: foliar, 168 h, application rate 200 ppm, sprayed sunflower leaf discs, mixed ages, 7 days after infestation. As to the method:
Example B8: Activity Against Frankliniella occidentalis (Western Flower Thrips)
Sunflower leaf discs were placed on agar in 24-well microtiter plates and sprayed with aqueous test solutions prepared from […] stock solutions. After drying the leaf discs were infested with a Frankliniella population of mixed ages. The samples were assessed for mortality 7 days after infestation.

Series [8] relates to Myzus persicae (Green Peach Aphid). As to the kind of experiment: Example B5: Activity against Myzus persicae (green peach aphid), systemic activity. The class given is in vivo. The note with it: 144 h, test rate 24 ppm, roots of pea seedlings in test solution, mixed ages, 6 days. On the procedure:
Example B5: Activity Against Myzus persicae (Green Peach Aphid) Systemic Activity
Roots of pea seedlings infested with an aphid population of mixed ages were placed directly into aqueous test solutions prepared from 10′000 DMSO stock solutions. The samples were assessed for mortality 6 days after placing seedlings into test solutions.

Series [9] relates to Tetranychus urticae (Two-Spotted Spider Mite). Kind of series: Example B9: Activity against Tetranychus urticae (two-spotted spider mite). It is filed as in vivo. The note with it: foliar, 192 h, application rate 200 ppm, sprayed bean leaf discs, 8 days after infestation, read-out: mortality on mixed population (mobile stages). As to the method:
Example B9: Activity Against Tetranychus urticae (Two-Spotted Spider Mite)
Bean leaf discs on agar in 24-well microtiter plates were sprayed with aqueous test solutions prepared from 10′000 ppm DMSO stock solutions. After drying the leaf discs were infested with a mite population of mixed ages. The samples were assessed for mortality on mixed population (mobile stages) 8 days after infestation.

`CCSc1ccc(Cl)nc1-c1cc2ccn(CC(F)(F)C(F)(F)F)c2cn1` [Compound P48, 5-(6-chloro-3-ethylsulfanyl-2-pyridyl)-1-(2,2,3,3,3-pentafluoropropyl) pyrrolo[2,3-c]pyridine] displayed a melting point of 185 to 188 °C.

As to `CCS(=O)(=O)c1cc(C(F)(F)F)cnc1-c1cc2cnn(CC(F)(F)C(F)(F)F)c2cn1` [Compound P31, 5-[3-ethylsulfonyl-5-(trifluoromethyl)-2-pyridyl]-1-(2,2,3,3,3-pentafluoropropyl) pyrazolo[3,4-c] pyridine], the percent control (mortality, anti-feedant effect or growth inhibition) at 200 ppm in [1] is at least 80%. Moreover, the percent effect (mortality or growth inhibition) at 200 ppm in [2], in series [3] and in [4] was at least 80% each time. The mortality at 200 ppm in [5] is at least 80%.

Consider `CCSc1cc(C(C)(C)C#N)cnc1-c1cc2cnn(CC(F)(F)C(F)(F)F)c2cn1` [Compound P6, 2-[5-ethylsulfanyl-6-[1-(2,2,3,3,3-pentafluoropropyl)pyrazolo[3,4-c]pyridin-5-yl]-3-pyridyl]-2-methyl-propanenitrile], for which, in series [1], the percent control (mortality, anti-feedant effect or growth inhibition) at 200 ppm was at least 80%. Besides, the percent effect (mortality or growth inhibition) at 200 ppm in series [2], in series [3] and in series [4] was at least 80% throughout. Besides, the mortality at 200 ppm in [6], in series [7] and in series [5] was at least 80% in each case.

`CCS(=O)(=O)c1ccc(N(C)C(C)=O)nc1-c1cc2cnn(CC(F)(F)C(F)(F)F)c2cn1` [Compound P12, N-[5-ethylsulfonyl-6-[1-(2,2,3,3,3-pentafluoropropyl)pyrazolo[3,4-c]pyridin-5-yl]-2-pyridyl]-N-methyl-acetamide]: in series [1], the percent control (mortality, anti-feedant effect or growth inhibition) at 200 ppm is at least 80%. Moreover, the mortality at 24 ppm in series [8] is at least 80%. The percent effect (mortality or growth inhibition) at 200 ppm in [2], in series [3] and in series [4] was at least 80% each time. Further, the mortality at 200 ppm in series [6] is at least 80%.

As to `CCS(=O)(=O)c1cc(C(C)(C)C#N)cnc1-c1cc2cnn(CC(F)(F)C(F)(F)F)c2cn1` [Compound P5, 2-[5-ethylsulfonyl-6-[1-(2,2,3,3,3-pentafluoropropyl)pyrazolo[3,4-c]pyridin-5-yl]-3-pyridyl]-2-methyl-propanenitrile], in series [1], the percent control (mortality, anti-feedant effect or growth inhibition) at 200 ppm was at least 80%. This compound also showed a mortality at 24 ppm in [8] of at least 80%. Further, the percent effect (mortality or growth inhibition) at 200 ppm in series [2], in series [3] and in series [4] was at least 80% each time. For the same compound, the mortality at 200 ppm in [6] and in series [5] was at least 80% in each case.

Take `CCSc1cc(C(C)(C)C#N)c[n+]([O-])c1-c1cc2ccn(CC(F)(F)C(F)(F)F)c2cn1` [PN6, 2-[5-ethylsulfanyl-1-oxido-6-[1-(2,2,3,3,3-pentafluoropropyl)pyrrolo[2,3-c]pyridin-5-yl]pyridin-1-ium-3-yl]-2-methyl-propanenitrile]: in series [9], the mortality at 200 ppm is at least 80%.

`CCSc1ccc[n+]([O-])c1-c1cc2ccn(CC(F)(F)C(F)(F)F)c2cn1` [PN2, 5-(3-ethylsulfanyl-1-oxido-pyridin-1-ium-2-yl)-1-(2,2,3,3,3-pentafluoropropyl) pyrrolo[2,3-c]pyridine] showed a melting point of 181 to 185 °C.

As for `CCS(=O)(=O)c1ccc(-c2ncccn2)nc1-c1cc2cnn(CC(F)(F)C(F)(F)F)c2cn1` [Compound P25, 5-(3-ethylsulfonyl-6-pyrimidin-2-yl-2-pyridyl)-1-(2,2,3,3,3-pentafluoropropyl) pyrazolo[3,4-c]pyridine], the percent control (mortality, anti-feedant effect or growth inhibition) at 200 ppm in [1] was at least 80%. In series [8], this compound had a mortality at 24 ppm of at least 80%. The percent effect (mortality or growth inhibition) at 200 ppm in series [2], in series [3] and in [4] was at least 80% each time. Also, the mortality at 200 ppm in series [6] and in series [7] was at least 80% throughout.

Consider `CCSc1cc(C2(C#N)CC2)cnc1-c1cc2cnn(CC(F)(F)C(F)(F)F)c2cn1` [Compound P10, 1-[5-ethylsulfanyl-6-[1-(2,2,3,3,3-pentafluoropropyl)pyrazolo[3,4-c]pyridin-5-yl]-3-pyridyl]cyclopropanecarbonitrile], for which, in series [1], the percent control (mortality, anti-feedant effect or growth inhibition) at 200 ppm was at least 80%. The percent effect (mortality or growth inhibition) at 200 ppm in series [2], in series [3] and in [4] was at least 80% in each case. Further, the mortality at 200 ppm in [7] is at least 80%.

Turning to `CCS(=O)(=O)c1cc(C(C)(C)C#N)cnc1-c1cc2ncn(CC(F)(F)C(F)(F)F)c2cn1` [Compound P40, 2-[5-ethylsulfonyl-6-[3-(2,2,3,3,3-pentafluoropropyl)imidazo[4,5-c]pyridin-6-yl]-3-pyridyl]-2-methyl-propanenitrile], in [1], the percent control (mortality, anti-feedant effect or growth inhibition) at 200 ppm was at least 80%. Besides, the mortality at 24 ppm in series [8] was at least 80%. In addition, the percent effect (mortality or growth inhibition) at 200 ppm in series [2], in [3] and in [4] was at least 80% each time. In addition, the mortality at 200 ppm in [6] is at least 80%.

Take `CCS(=O)(=O)c1ccc(N(C)C(=O)NC)nc1-c1cc2ccn(CC(F)(F)C(F)(F)F)c2cn1` [Compound P13, 1-[5-ethylsulfonyl-6-[1-(2,2,3,3,3-pentafluoropropyl)pyrrolo[2,3-c]pyridin-5-yl]-2-pyridyl]-1,3-dimethyl-urea]: the melting point is 214 to 217 °C.

Turning to `CCS(=O)(=O)c1cc(C2(C#N)CC2)cnc1-c1cc2cnn(CC(F)(F)C(F)(F)F)c2cn1` [Compound P11, 1-[5-ethylsulfonyl-6-[1-(2,2,3,3,3-pentafluoropropyl)pyrazolo[3,4-c]pyridin-5-yl]-3-pyridyl]cyclopropanecarbonitrile], the percent control (mortality, anti-feedant effect or growth inhibition) at 200 ppm in series [1] is at least 80%. Also, the percent effect (mortality or growth inhibition) at 200 ppm in [2], in series [3] and in series [4] was at least 80% throughout. The mortality at 200 ppm in [6], in [7] and in [5] was at least 80% each time.

`CCSc1cc(C(C)(C)C#N)cnc1-c1cc2ncn(CC(F)(F)C(F)(F)F)c2cn1` [Compound P47, 2-[5-ethylsulfanyl-6-[3-(2,2,3,3,3-pentafluoropropyl)imidazo[4,5-c]pyridin-6-yl]-3-pyridyl]-2-methyl-propanenitrile]: the percent effect (mortality or growth inhibition) at 200 ppm in series [2], in series [3] and in series [4] was at least 80% in each case. This compound also came in with a mortality at 200 ppm in series [7] of at least 80%.

Values taken from US20220132852A1, “PESTICIDALLY ACTIVE HETEROCYCLIC DERIVATIVES WITH SULFUR CONTAINING SUBSTITUENTS” (SYNGENTA CROP PROTECTION AG, priority 2019, published 2022).
